Reference: article PMC8333062, “Chemical tools for epichaperome-mediated interactome dysfunctions of the central nervous system” (Nature Communications, 2021)
Values joined by “and” are separate entries in the source; they are usually repeats but may differ in a detail not shown here. Identical values can stand only once.

Legend:
CYP3A = assay: Cytochrome P450 profiling, ketoconazole; type: in vitro ADME, human; details: for % PU-HZ151 remaining: Ketoconazole
Protocol: (§1) To identify cytochrome P450 enzymes responsible for PU-HZ151’s metabolism in human liver microsomes the following procedure was followed. Phosphate buffer (100 mM, pH 7.4) was prepared monthly and stored at 4 °C. Frozen stock solutions of human liver microsomes (Life Technologies; Cat# HMMCPL) were used once after thawing and were not refrozen. NADPH stock solution (50 mM) in distilled water was prepared fresh daily. […] The stock solutions of these P450 inhibitors were prepared in DMSO. […] The concentration of the chemical inhibitors used in the assay were furafylline (10 μM), tranylcypromine (2 μM), ketoconazole (1 μM), troleandomycin (20 μM), orphenadrine (50 μM), montelukast (3 μM), sulfaphenazole (10 μM), benzylnirvanol (1 μM), quinidine (1 μM), and 1-aminobenzotriazole (1 mM) for all the P450 enzymes. Timing of the reactions was started following the addition of NADPH/magnesium chloride mix and PU-HZ151. Time-dependent chemical inhibitors (furafylline, troleandomycin, orphenadrine, and 1-aminobenzotriazole) were preincubated with human microsomes in the presence of NADPH and magnesium chloride for 15 min before the addition of PU-HZ151 and timing of reactions was started after addition of PU-HZ151. […] Following brief vortexing and centrifugation, a 200 µL aliquot of the supernatant was transferred to a tube, and 10 µL of haloperidol (1 µg mL^−1) as internal standard was added. Following brief vortexing and centrifugation, 50 µL of supernatant was added to a 96-well plate for subsequent LC-MS/MS analysis. PU-HZ151 was similarly tested as above in the absence of CYP inhibitors for comparative purposes. All samples were assayed in duplicate. […] This was similarly performed for incubations of PU-HZ151 performed in the absence of CYP inhibitor.

MDA-MB-468 cells = assay: Cell viability, ATP levels 72 h; type: cell-based, human; design: key to Cell viability (ATP levels): ATP levels as % of vehicle (DMSO) control; details: replicates; for Cell viability (ATP levels): MDA-MB-468
Protocol: Supplementary Fig. 15: PU-HZ151 activity in cells is unaffected by Pgp overexpression. a Two Pgp-positive cells lines, Kasumi-1 and HepG2, were tested for epichaperome-positivity. β-Actin, loading control. b ATP levels in cell treated for 72 h with 0 to 1 µM PU-HZ151. Data are presented as means ±s.e.m. of three experimental repeats. Control, vehicle (DMSO) treated cells. c Western blot analysis of aberrant signaling pathway inhibition by […]
(also on this page, place not known: MDA‐MB-468ASPC1Kasumi Hep G2 ATP levels %Control MDA‐MB-468ASPC1Kasumi 1Hep G2 β-Actin HSP90α Native-PAGE SDS PAGE 100- β-Actin 1)

[1] = Metabolic stability in liver microsomes; type: in vitro ADME, human; details: No inhibitor
Protocol: All samples were assayed in duplicate.
To identify cytochrome P450 enzymes responsible for PU-HZ151’s metabolism in human liver microsomes the following procedure was followed. Phosphate buffer (100 mM, pH 7.4) was prepared monthly and stored at 4 °C. Frozen stock solutions of human liver microsomes (Life Technologies; Cat# HMMCPL) were used once after thawing and were not refrozen. NADPH stock solution (50 mM) in distilled water was prepared fresh daily. Stock solutions of PU-HZ151 (1 mM in DMSO) and CYP inhibitors, furafylline (10 mM) for CYP1A2, tranylcypromine (2 mM) for CYP2A6, ketoconazole (1 mM) for CYP3A, troleandomycin (20 mM) for CYP3A4, orphenadrine (50 mM) for CYP2B6, montelukast (3 mM) for CYP2C8, sulfaphenazole (10 mM) for CYP2C9, benzylnirvanol (1 mM) for CYP2C19, quinidine (1 mM) for CYP2D6, and 1-aminobenzotriazole (1 mM) for all the P450 enzymes were stored at −20 °C. The stock solutions of these P450 inhibitors were prepared in DMSO. General procedure: PU-HZ151 (1 µM) was incubated with human liver microsomes (0.5 mg protein mL^−1), 2.5 mM NADPH, 3.3 mM magnesium chloride, and chemical inhibitors (various concentrations) in phosphate buffer (100 mM, pH 7.4) at 37 °C for up to 60 min. […] The concentration of the chemical inhibitors used in the assay were furafylline (10 μM), tranylcypromine (2 μM), ketoconazole (1 μM), troleandomycin (20 μM), orphenadrine (50 μM), montelukast (3 μM), sulfaphenazole (10 μM), benzylnirvanol (1 μM), quinidine (1 μM), and 1-aminobenzotriazole (1 mM) for all the P450 enzymes. Timing of the reactions was started following the addition of NADPH/magnesium chloride mix and PU-HZ151. Time-dependent chemical inhibitors (furafylline, troleandomycin, orphenadrine, and 1-aminobenzotriazole) were preincubated with human microsomes in the presence of NADPH and magnesium chloride for 15 min before the addition of PU-HZ151 and timing of reactions was started after addition of PU-HZ151. […]

CYP2C9 = target: T1, CYP2C9 (Homo sapiens, UniProt P11712); assay: Cytochrome P450 profiling, sulfaphenazole; type: in vitro ADME; details: for % PU-HZ151 remaining: Sulfaphenazole
T1 construct: PU-HZ151 (1 µM) was incubated with human liver microsomes (0.5 mg protein mL^−1); tissue Life Technologies HMMCPL; host or cells: human liver microsomes
T1 sequence (P11712 whole entry): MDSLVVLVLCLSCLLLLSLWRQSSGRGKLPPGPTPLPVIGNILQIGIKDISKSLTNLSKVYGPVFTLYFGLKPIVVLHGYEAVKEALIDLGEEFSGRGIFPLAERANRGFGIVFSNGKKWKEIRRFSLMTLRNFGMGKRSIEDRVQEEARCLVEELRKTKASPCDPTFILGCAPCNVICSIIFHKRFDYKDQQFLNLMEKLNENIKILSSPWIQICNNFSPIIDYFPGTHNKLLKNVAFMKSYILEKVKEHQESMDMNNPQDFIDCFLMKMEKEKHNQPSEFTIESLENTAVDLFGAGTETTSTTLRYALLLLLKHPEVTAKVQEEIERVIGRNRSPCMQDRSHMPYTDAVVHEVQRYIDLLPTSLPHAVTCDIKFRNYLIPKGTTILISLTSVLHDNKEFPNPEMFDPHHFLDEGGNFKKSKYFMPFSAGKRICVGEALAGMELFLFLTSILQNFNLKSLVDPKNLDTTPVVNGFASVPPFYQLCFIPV
Protocol: as §1

[2] = Chronic administration toxicity; type: in vivo, B6C3F1 mice; details: 75 mg/kg IV 3 times per week, approximately 24 weeks

SMILES: CC(C)(C)CNCCn1c(Sc2cc3c(cc2I)OCO3)nc2c(N)ncnc21 [Compound 85]
- % PU-HZ151 remaining (CYP3A; 15 min): 76.5%
- % PU-HZ151 remaining (CYP3A; 30 min): 63.5%
- % PU-HZ151 remaining (CYP3A; 60 min): 50.6%
- inhibition of PU-HZ151 metabolism (CYP3A; ketoconazole): 40%
- viability at 0.00195312 µM (MDA-MB-468 cells; Homo sapiens, MDA-MB-468, MDA-MB-468, 1.95312 nM): 97.8%
- viability at 0.00390625 µM (MDA-MB-468 cells; Homo sapiens, MDA-MB-468, MDA-MB-468, 3.90625 nM): 107%
- viability at 0.015625 µM (MDA-MB-468 cells; Homo sapiens, MDA-MB-468, MDA-MB-468, 15.625 nM): 107%
- viability at 0.03125 µM (MDA-MB-468 cells; Homo sapiens, MDA-MB-468, MDA-MB-468, 31.25 nM): 34.4%
- viability at 0.125 µM (MDA-MB-468 cells; Homo sapiens, MDA-MB-468, MDA-MB-468, 125 nM): 7.51%
- viability at 0.5 µM (MDA-MB-468 cells; Homo sapiens, MDA-MB-468, MDA-MB-468, 500 nM): 13.5%
- Cell viability (ATP levels) (MDA-MB-468 cells; 1.95312 nM, listed as PU-HZ151, 0.00195312 µM): 110.592 and 103.375
- Cell viability (ATP levels) (MDA-MB-468 cells; 3.90625 nM, listed as PU-HZ151, 0.00390625 µM): 119.425 and 107.367
- Cell viability (ATP levels) (MDA-MB-468 cells; 7.8125 nM, listed as PU-HZ151, 0.0078125 µM): 108.225 and 84.5333 and 99.0667
- Cell viability (ATP levels) (MDA-MB-468 cells; 15.625 nM, listed as PU-HZ151, 0.015625 µM): 116.083 and 108.992
- Cell viability (ATP levels) (MDA-MB-468 cells; 31.25 nM, listed as PU-HZ151, 0.03125 µM): 42.5333 and 26.2083
- Cell viability (ATP levels) (MDA-MB-468 cells; 62.5 nM, listed as PU-HZ151, 0.0625 µM): 4.317 and 13.7833 and 10.55
- Cell viability (ATP levels) (MDA-MB-468 cells; 125 nM, listed as PU-HZ151, 0.125 µM): 8.242 and 5.217
- Cell viability (ATP levels) (MDA-MB-468 cells; 500 nM, listed as PU-HZ151, 0.5 µM): 14.6417 and 13.2667
- Cell viability (ATP levels) (MDA-MB-468 cells; 1000 nM, listed as PU-HZ151, 1 µM): 13.625 and 13.2667 and 6.525
- % PU-HZ151 remaining ([1]; 15 min): 52.7%
- % PU-HZ151 remaining ([1]; 30 min): 34.7%
- % PU-HZ151 remaining ([1]; 60 min): 17.2%
- % PU-HZ151 remaining (CYP2C9; 15 min): 70.5%
- % PU-HZ151 remaining (CYP2C9; 30 min): 54.1%
- % PU-HZ151 remaining (CYP2C9; 60 min): 36.5%
- inhibition of PU-HZ151 metabolism (CYP2C9; sulfaphenazole): 23%
- chronic toxicity [2]: No
